In patent US20050202511A1, “AMP-activated protein kinase (AMPK) inhibitor screening assay” (priority 2002, published 2005):

Assays:
CLC2 CBS1-2 (G715E) = biological target: T1, CLC2 CBS1-2 (G715E) (Homo sapiens, UniProt P51788, G715E); assay: Filter binding assay, GST-CBS domain fusion; conditions: single-site model
T1 construct: DNAs encoding residues 582-840 of CLC2; made in house; host or cells: E. coli BL21 (DE3)
Source text: (§1) DNA encoding the CBS domain pair from the chloride channel CLC2 was also cloned and expressed. […] The G715E mutation, in the linker between the first and second CBS domains of CLC2, is associated with idiopathic generalized epilepsy (29), while the G826D mutation is in an equivalent position in the second CBS domain to the G859D mutation in CLC1 that is associated with congenital myotonia (28).
(§2) For IMPDH2, DNAs encoding residues 112-232 or the full-length protein (1-514) were amplified using human liver cDNA (Clontech) as template, and cloned into pHAT20 (Clontech) using 5′-AgeI and 3′-KpnI sites added to the primers. For the other constructs, DNAs encoding residues 582-840 of CLC2, or 416-551 of cystathionine â-synthase, were amplified using human liver cDNA as template, and cloned into pGEX-KG as above using 5′-BamHI and 3′-XhoI sites added to the primers. All mutations were created using the Stratagene QuikChange Site-directed Mutagenesis system.
(§3) Various concentrations of [^14C]-AMP, [γ^32P] […] Reactions were stopped by spotting 10 ìl onto a Millipore MF Filter Membrane disc and rapidly washing under high vacuum with 1 ml of ice-cold TBS. Radioactivity was determined on the filters by scintillation counting. Non-specific binding (which was trivial) was determined by performing the assay with GST as a control, and was subtracted. […]

[1] = biological target: T2, CLC2 CBS domain pair G826D (Homo sapiens, UniProt P51788, G828D); assay: Filter binding assay, GST-CBS domain fusion; conditions: single-site model
T2 construct: DNAs encoding residues 582-840 of CLC2; made in house; host or cells: E. coli BL21 (DE3)
T2 sequence (P51788 582-840 G828D): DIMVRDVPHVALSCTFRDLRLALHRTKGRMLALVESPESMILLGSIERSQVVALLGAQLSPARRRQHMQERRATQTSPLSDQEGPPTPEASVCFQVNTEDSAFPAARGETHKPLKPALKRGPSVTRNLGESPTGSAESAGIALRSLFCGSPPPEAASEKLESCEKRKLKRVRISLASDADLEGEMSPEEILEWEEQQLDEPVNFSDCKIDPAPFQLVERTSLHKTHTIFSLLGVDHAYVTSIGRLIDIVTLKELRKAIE
Source text: as §1, §2, §3

IMPDH2 Tetramer (R224P) = biological target: T3, IMPDH2 Tetramer (R224P) (Homo sapiens, UniProt P12268, R224P); assay: Filter binding assay, full-length protein
T3 construct: the full-length protein (1-514); His tag (pHAT20 vector); made in house; host or cells: E. coli
T3 sequence (P12268 whole entry R224P): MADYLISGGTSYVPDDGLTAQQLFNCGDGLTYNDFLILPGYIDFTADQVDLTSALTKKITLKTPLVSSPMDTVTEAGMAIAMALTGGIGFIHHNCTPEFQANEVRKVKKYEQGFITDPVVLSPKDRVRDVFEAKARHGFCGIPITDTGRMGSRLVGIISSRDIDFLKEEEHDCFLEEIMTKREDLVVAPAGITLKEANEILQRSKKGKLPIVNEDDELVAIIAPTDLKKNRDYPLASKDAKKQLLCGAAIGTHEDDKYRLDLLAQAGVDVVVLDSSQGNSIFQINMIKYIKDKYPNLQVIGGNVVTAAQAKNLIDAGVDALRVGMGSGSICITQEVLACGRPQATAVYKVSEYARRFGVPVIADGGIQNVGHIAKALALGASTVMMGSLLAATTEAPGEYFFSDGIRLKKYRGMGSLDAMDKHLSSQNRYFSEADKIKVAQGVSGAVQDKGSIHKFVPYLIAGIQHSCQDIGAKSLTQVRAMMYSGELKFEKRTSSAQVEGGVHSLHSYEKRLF
Source text: as §2
The IMPDH2 constructs were His-tagged and were purified on chelating-Sepharose (Pharmacia) charged with 50 mM CoCl2 according to manufacturer's instructions.
Various concentrations of [^14C]-AMP, [γ^32P] […] Reactions were stopped by spotting 10 ìl onto a Millipore MF Filter Membrane disc and rapidly washing under high vacuum with 1 ml of ice-cold TBS. Radioactivity was determined on the filters by scintillation counting. Non-specific binding (which was trivial) was determined by performing the assay with GST as a control, and was subtracted. […] Data were fitted to the binding models given in the text, using GraphPad Prism 3. Estimates of parameters resulting from fits are quoted in the text and Table 1±standard error, and the curves shown in figures are theoretical curves obtained using those estimates.

T1 sequence (P51788 582-840 G715E): as the sequence (P51788 582-840 G828D) above, with G134E, D247G counted along it

| Kd (CLC2 CBS1-2 (G715E)) | Kd [1] | h (Hill coefficient) (IMPDH2 Tetramer (R224P)) | Kd (IMPDH2 Tetramer (R224P); Hill equation, 4 sites, read-out: B0.5) | SMILES |
| --- | --- | --- | --- | --- |
| 10.4 ± 1.3 mM | 14.3 ± 0.55 mM |  |  | Nc1ncnc2c1ncn2[C@@H]1O[C@H](COP(=O)(O)O)[C@@H](O)[C@H]1O [AMP, adenosine monophosphate] |
|  |  | 0.9 ± 0.1 | 64 ± 5 mM | Nc1ncnc2c1ncn2[C@@H]1O[C@H](COP(=O)(O)OP(=O)(O)OP(=O)(O)O)[C@@H](O)[C@H]1O [ATP] |
